In paper PMC2878666 (Biochemistry, 2009):

Experiments:
[1] = target: T1, nicotinic acetylcholine receptor (Torpedo nAChR, α2βγδ), α subunit (Tetronarce californica, UniProt P02710+P02712+P02714+P02718); assay: [3H]PCP radioligand displacement; format: binding
[2] = target: T1, nicotinic acetylcholine receptor (Torpedo nAChR, α2βγδ), α subunit; assay: [3H]PCP radioligand displacement, centrifugation assay; format: binding

T1 sequence (P02710 25-461): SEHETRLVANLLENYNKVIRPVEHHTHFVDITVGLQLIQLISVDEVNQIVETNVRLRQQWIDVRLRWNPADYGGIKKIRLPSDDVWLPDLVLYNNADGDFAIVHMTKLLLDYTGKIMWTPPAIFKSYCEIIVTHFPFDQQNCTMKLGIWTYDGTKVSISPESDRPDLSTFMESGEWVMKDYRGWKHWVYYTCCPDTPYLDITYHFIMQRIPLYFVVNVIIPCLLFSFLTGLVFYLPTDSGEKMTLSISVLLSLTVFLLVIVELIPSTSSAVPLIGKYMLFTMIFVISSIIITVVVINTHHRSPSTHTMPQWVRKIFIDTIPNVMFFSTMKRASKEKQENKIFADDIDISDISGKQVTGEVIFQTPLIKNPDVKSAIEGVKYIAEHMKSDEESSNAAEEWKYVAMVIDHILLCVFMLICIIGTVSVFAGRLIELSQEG
T1 sequence (P02712 25-493): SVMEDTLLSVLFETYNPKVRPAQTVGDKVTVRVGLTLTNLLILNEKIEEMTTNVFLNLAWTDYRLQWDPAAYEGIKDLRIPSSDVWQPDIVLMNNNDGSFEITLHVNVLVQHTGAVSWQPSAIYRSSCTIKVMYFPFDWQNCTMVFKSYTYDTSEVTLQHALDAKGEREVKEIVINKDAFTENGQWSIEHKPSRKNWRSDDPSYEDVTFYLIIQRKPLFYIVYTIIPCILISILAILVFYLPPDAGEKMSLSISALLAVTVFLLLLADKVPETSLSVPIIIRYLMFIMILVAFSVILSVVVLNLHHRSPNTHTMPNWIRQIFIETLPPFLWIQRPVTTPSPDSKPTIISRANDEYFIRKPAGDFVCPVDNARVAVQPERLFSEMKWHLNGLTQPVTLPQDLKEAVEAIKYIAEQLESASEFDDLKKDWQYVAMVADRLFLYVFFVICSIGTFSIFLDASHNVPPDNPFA
T1 sequence (P02714 18-506): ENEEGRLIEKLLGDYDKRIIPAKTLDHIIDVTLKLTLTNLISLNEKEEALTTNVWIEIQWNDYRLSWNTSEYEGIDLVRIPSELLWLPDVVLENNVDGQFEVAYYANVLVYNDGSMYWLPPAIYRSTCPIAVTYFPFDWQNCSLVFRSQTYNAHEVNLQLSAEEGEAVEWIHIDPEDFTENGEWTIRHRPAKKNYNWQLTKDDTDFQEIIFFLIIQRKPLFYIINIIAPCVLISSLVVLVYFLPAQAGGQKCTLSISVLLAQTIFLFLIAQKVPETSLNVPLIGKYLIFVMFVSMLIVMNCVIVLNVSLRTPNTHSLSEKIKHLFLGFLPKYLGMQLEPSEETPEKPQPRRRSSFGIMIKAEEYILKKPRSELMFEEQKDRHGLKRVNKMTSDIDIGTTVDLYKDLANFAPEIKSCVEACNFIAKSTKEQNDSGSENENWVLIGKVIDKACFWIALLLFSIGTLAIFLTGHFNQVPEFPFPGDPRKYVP
T1 sequence (P02718 22-522): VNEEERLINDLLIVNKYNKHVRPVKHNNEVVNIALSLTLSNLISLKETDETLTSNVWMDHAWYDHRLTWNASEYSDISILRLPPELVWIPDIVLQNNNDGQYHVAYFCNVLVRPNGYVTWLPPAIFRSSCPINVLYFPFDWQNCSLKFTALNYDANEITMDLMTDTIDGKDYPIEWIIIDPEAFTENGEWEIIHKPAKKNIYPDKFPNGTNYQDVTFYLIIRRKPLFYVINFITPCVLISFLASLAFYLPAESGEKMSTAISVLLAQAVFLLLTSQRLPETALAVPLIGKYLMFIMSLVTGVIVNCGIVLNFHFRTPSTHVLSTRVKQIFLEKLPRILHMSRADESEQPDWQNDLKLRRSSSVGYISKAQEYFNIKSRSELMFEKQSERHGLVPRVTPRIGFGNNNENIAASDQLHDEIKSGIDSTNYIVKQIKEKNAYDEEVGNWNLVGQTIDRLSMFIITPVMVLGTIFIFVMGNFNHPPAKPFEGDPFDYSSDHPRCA

Structure (SMILES) | IC50 [1] [µM] | IC50 [2] [µM]
CN(C)CCCN1c2ccccc2Sc2ccc(Cl)cc21 [CPZ, chlorpromazine] | 2.3 ± 0.4 | 
CN(C)CCCN1c2ccccc2[S+]([O-])c2ccc(Cl)cc21 (stereo not drawn) [CPZsulfoxide, chlorpromazine sulfoxide] |  | 69 ± 6
CN(C)CCCN1c2ccccc2Sc2ccccc21 [promazine] |  | 3.5 ± 0.2
